# Measurements taken from patent publication US8785600B2, “Anti-GCC antibody molecules and related compositions and methods” (Millennium Pharmaceuticals, Inc., priority 2009, dated 2014).
# Square brackets hold non-standard residues; d marks the D form. Peptide text beside a SMILES is read from it. * marks the point of attachment. Dolaproine = CO[C@@H]([C@@H]1CCCN1)[C@@H](C)C(=O)O; Hexanoyl(6-maleimido) = O=C1C=CC(=O)N1CCCCCC(=O)*; Dil = CC[C@H](C)[C@H](NC)[C@@H](CC(=O)O)OC; X1 = C[C@@H](N*)[C@@H](O)c1ccccc1; NMeV = CN[C@H](C(=O)O)C(C)C
# What was measured:
# [1] = tested on: 293-GCC#2 tumors; test: PD study: phosphohistone H3 positive tumor cells after single iv dose; format: in vivo, mice; details: 75 or 150 ug/kg toxin
# Method: An alternative tumor model used 293-GCC#2 cells. A PD study for 5F9 ADCs in 293-GCC#2 tumor bearing mice was performed. Mice were dosed with single doses of 5F9vcMMAF at 75 ug/kg or 150 ug/kg and serum was taken at timepoints from 1 hr through 4 days for PD analysis of phosphohistone H3 to test antimitotic effects of the toxin on tumor cells. Phospho-histone H3 was detected by antibody (Upstate Biotechnology, now Millipore, Billerica, Mass.) staining of paraffin embedded sections of tumors.
# Similar studies measured the phosphohistone levels in 293-GCC#2 tumor-bearing mice treated with 5F9vcMMAF, 5F9-SPDB-DM4 and 5F9-SMCC-DM1. Mice were dosed with single doses at 150 ug/kg and serum was taken at timepoints from 1 hr through 21 days for PK analysis of both total antibody and toxin-conjugated antibody. The percentage of phosphohistone H3 positive cells in 293-GCC#2 tumors increased in response to all three ADCS: 5F9vcMMAF, 5F9-SMCC-DM1 and 5F9-SPDB-DM4. Maximal phosphohistone H3 levels were 3- to 5-fold increased over baseline, with peaks at 24 hours post-injection.
# [2] = tested on: 293-GCC#2 tumors; test: Efficacy study with 5F9vcMMAF and 5F9-DMx in 293-GCC#2 s.c. tumors; format: in vivo; details: 293-GCC#2 bearing SCID mice, 75 and 150 ug/kg toxin, q14d schedule
# Method: 5F9-SPDB-DM4, 5F9-SMCC-DM1 and 5F9vcMMAF were tested for efficacy in the 293-GCC#2 tumor model at two doses (75 μg/kg and 150 μg/kg toxin), on a q14d×5 schedule. Specifically, this study included vehicle-treated control, Sc209-DM1 (150 μg/kg DM1 eq), Sc209-DM4 (150 μg/kg DM4 eq), Sc209-vcMMAF (150 μg/kg MMAF eq), 5F9-DM1 (150 μg/kg DM1 eq), 5F9-DM1 (75 μg/kg DM1 eq), 5F9-DM4 (150 μg/kg DM4 eg), 5F9-DM4 (75 μg/kg DM4 eq), 5F9-vcMMAF (150 μg/kg MMAF eq), and 5F9-vcMMAF (75 μg/kg MMAF eq). Taconic females mice bearing 293-GCC#2 cells (10 mice per group) were used.
# FIG. 1 depicts tumor growth in 293-GCC#2 bearing SCID mice treated with 5F9vc-MMAF, -DM1, and -DM4 on a q14d schedule. […] Therefore at these doses and schedules, 5F9-SPDB-DM4 had the greatest efficacious differential from its control conjugate.
# 5F9-SPDB-DM4 and 5F9-SMCC-DM1 were tested for efficacy in the 293-GCC#2 tumor model at two doses (75 ug/kg and 150 ug/kg toxin) on a q7d×5 schedule. Specifically, this study included vehicle-treated control, 5F9 alone (15 mg/kg), DM1 (300 μg/kg), DM4 (300 μg/kg), Sc209-DM1 (150 μg/kg DM1 eq), Sc209-DM4 (150 μg/kg DM4 eq), Sc209-vcMMAF (150 μg/kg MMAF eq), 5F9-DM1 (150 μg/kg DM1 eq), 5F9-DM1 (75 μg/kg DM1 eq), 5F9-DM4 (150 μg/kg DM4 eq), and 5F9-DM4 (75 μg/kg DM4 eq). Taconic females mice bearing 293-GCC#2 cells (10 mice per group) were used.
# [3] = tested on: 293 GCC#2 tumors; test: Efficacy study with auristatin conjugates in 293 GCC#2 tumors; format: in vivo, SCID mice; set-up: TGI (tumor growth inhibition) / TGD (tumor growth delay): unit not given here
# Method: 293 GCC#2 tumor-bearing SCID mice were treated with 5F9 conjugates with vc MMAE, vcMMAF or mcMMAF at three doses in comparison with 209 conjugates of these toxins or with free toxins or vehicle control. Doses were administered iv on a q7d×4 schedule. Tumors were harvested at days 3, 7, 10, 13 and 17. […] Table 18 provides a summary of the results (TGI=tumor growth inhibition, T/C=treatment/control, TGD=tumor growth delay, CR/PR=complete response/partial response; p value=measure to judge statistical significance, NS=not significant).
# All three of these ADCs were efficacious in the 293 GCC#2 model on a q7d schedule.
# [4] = tested on: 293 GCC#2 cells; format: cell-based, human; details: 293 cell model (293 GCC#2 vs control cells / 209 ADCs)
# [5] = tested on: HT29 GCC#5 cells; format: cell-based, human; details: HT29 cell model
# [6] = tested on: HT29-GCC#5 tumors; test: Pilot efficacy studies in HT29-GCC#5 s.c. tumors; format: in vivo, mice; details: 150 μg/kg on a q3d×5 schedule
# Method: Studies were performed to determine efficacious conjugates and dosage regimens in mice bearing HT29-GCC#5 tumors. Mice were dosed with single or multiple doses. These studies determined that there was toxicity at too frequent dosing at higher levels of toxin conjugate (e.g., 150 μg/kg 5F9vcMMAF on a q3d×5 schedule). Another study determined that q14d×5 schedule was too infrequent in this model to allow some toxin conjugates to show significant efficacy vs. controls.
# [7] = tested on: PHTX-9c primary human colon tumor xenograft; test: Antitumor activity in PHTX-9c primary human colon tumor xenograft (Study A and Study B); format: in vivo, CB-17 SCID mice
# Method: Female CB-17 SCID mice (eight weeks old) were inoculated subcutaneously (SC) into the flank with PHTX-9c tumor fragments (2 mm×2 mm). Tumor growth was monitored twice per week using vernier calipers and the mean tumor volume was calculated using the formula (0.5×[length×width^2]). When the mean tumor volume reached approximately 150 mm^3 (Study A) or 160 mm^3 (Study B), animals were randomized into treatment groups (n=10/group for Study A and n=9/group for Study B).
# Doses were administered on Days 1, 8, and 15 for the QW schedule and Days 1, 4, 8, 11, 15, and 18 for the BIW schedule. […] The equivalent dose of linker+MMAE is 4% of the 5F9-vcMMAE dose. These calculations are based on a mean 3.9 MMAE molecules per antibody and a free antibody molecular weight of 150 kD. Actual antibody molecular weight will vary slightly due to degree of glycosylation.
# Tumor volume and body weight were measured twice weekly and were continued beyond the treatment period to measure regrowth kinetics, as evidenced by tumor growth delay (TGD). Tumor volume measurements were continued until tumor volume reached 10% of the body weight in a single mouse within a treatment group, at which time the group was terminated. The percentage of tumor growth inhibition (TGI) ([mean tumor volume of the control group−mean tumor volume of a treated group]/mean tumor volume of the control group; a T/C ratio) was determined on Day 20. The T/C ratios across a treatment group were compared to the T/C ratios of the control group using a two-tailed Welch's t-test.
# The differences in the tumor growth trends over time between pairs of treatment groups were assessed using linear mixed effects regression models. These models account for the fact that each animal was measured at multiple time points. A separate model was fit for each comparison, and the areas under the curve (AUC) for each treatment group were calculated using the predicted values from the model. The percent decrease in AUC (dAUC) relative to the reference group was then calculated.
# [8] = tested on: CT26 hGCC/luc #32 cells; test: Pilot efficacy study with naked antibody in CT26 hGCC/luc #32 disseminated model; details: 40 mg/kg
compound,measurement,setting,value
5F9-SMCC-DM1: 5F9 conjugated to DM1 using SMCC heterobifunctional crosslinker,Percentage of phosphohistone H3 positive cells in 293-GCC#2 tumors,[1],increased
same,Tumor growth (efficacy),[2],"efficacious, however less so than 5F9-SPDB-DM4 at 150 ug/kg"
5F9-vcMMAE: 5F9 mAb conjugated to MMAE through the vc (Val-Cit) linker; average drug loading about 3.6,T/C (treatment/control),[3]; 75 μg/kg iv q7d×4,0.45
same,TGD (tumor growth delay),[3]; 75 μg/kg iv q7d×4,4.4
same,TGI (tumor growth inhibition),[3]; 75 μg/kg iv q7d×4,54.5
same,T/C (treatment/control),[3]; 150 μg/kg iv q7d×4,0.17
same,TGI (tumor growth inhibition),[3]; 150 μg/kg iv q7d×4,83.5
same,T/C (treatment/control),[3]; 300 μg/kg iv q7d×4,0.03
same,TGI (tumor growth inhibition),[3]; 300 μg/kg iv q7d×4,96.9
5F9-vcMMAF: 5F9 anti-GCC antibody molecule conjugated with mc-vc-MMAF,Target enhanced cell kill,[4],target enhanced cell kill
same,Target enhanced cell kill,[5],target enhanced cell kill
same,Toxicity,[6],toxicity
same,Percentage of phosphohistone H3 positive cells in 293-GCC#2 tumors,[1],increased
same,Tumor growth (efficacy),[2],the most efficacious
same,T/C (treatment/control),[3]; 37.5 μg/kg iv q7d×4,0.35
same,TGD (tumor growth delay),[3]; 37.5 μg/kg iv q7d×4,7.1
same,TGI (tumor growth inhibition),[3]; 37.5 μg/kg iv q7d×4,65.2
same,T/C (treatment/control),[3]; 75 μg/kg iv q7d×4,0.12
same,TGI (tumor growth inhibition),[3]; 75 μg/kg iv q7d×4,88.5
same,T/C (treatment/control),[3]; 150 μg/kg iv q7d×4,0.03
same,TGI (tumor growth inhibition),[3]; 150 μg/kg iv q7d×4,97
same,Tumor growth inhibition (efficacy),"[3]; 293 GCC#2 model, iv, q7d×4 schedule",more potent than 5F9-vcMMAE
CC[C@H](C)[C@@H]([C@@H](CC(=O)N1CCC[C@H]1[C@H](OC)[C@@H](C)C(=O)N[C@H](C)[C@@H](O)c1ccccc1)OC)N(C)C(=O)[C@@H](NC(=O)[C@@H](NC)C(C)C)C(C)C [Free MMAE] (H-[NMeV]V[Dil][Dolaproine]-X1),CR/PR (complete response/partial response),[3]; 300 μg/kg iv q7d×4,0
same,T/C (treatment/control),[3]; 300 μg/kg iv q7d×4,0.64
same,TGD (tumor growth delay),[3]; 300 μg/kg iv q7d×4,2
same,TGI (tumor growth inhibition),[3]; 300 μg/kg iv q7d×4,35.6
CC[C@H](C)[C@@H]([C@@H](CC(=O)N1CCC[C@H]1[C@H](OC)[C@@H](C)C(=O)N[C@@H](Cc1ccccc1)C(=O)O)OC)N(C)C(=O)[C@@H](NC(=O)[C@H](C(C)C)N(C)C(=O)CCCCCN1C(=O)C=CC1=O)C(C)C [Free mcMMAF] ({Hexanoyl(6-maleimido)}-[NMeV]V[Dil][Dolaproine]F-OH),CR/PR (complete response/partial response),[3]; 150 μg/kg iv q7d×4,0
same,T/C (treatment/control),[3]; 150 μg/kg iv q7d×4,1.03
same,TGD (tumor growth delay),[3]; 150 μg/kg iv q7d×4,−1.3
same,TGI (tumor growth inhibition),[3]; 150 μg/kg iv q7d×4,−3.4
"CC[C@H](C)[C@@H]([C@@H](CC(=O)N1CCC[C@H]1[C@H](OC)[C@@H](C)C(=O)N[C@H](C)[C@@H](O)c1ccccc1)OC)N(C)C(=O)[C@@H](NC(=O)[C@@H](NC)C(C)C)C(C)C [MMAE, monomethyl auristatin E] (H-[NMeV]V[Dil][Dolaproine]-X1)",TGI,[7]; 0.075 mg/kg IV QW,no tumor growth inhibition
same,TGI,[7]; 0.135 mg/kg IV QW,no tumor growth inhibition
same,TGI,[7]; 0.15 mg/kg IV QW,no tumor growth inhibition
same,TGI,"[7]; Study A, 0.075 mg/kg IV QW × 3 doses, Day 20",5.0 (p > 0.05) %
same,TGI,"[7]; Study A, 0.15 mg/kg IV QW × 3 doses, Day 20",11.1 (p > 0.05) %
same,TGI,"[7]; Study B, 0.135 mg/kg IV QW × 3 doses, determined on Day 20",2.2 (p > 0.05) %
"sc209: human IgG1 monoclonal antibody raised against an unrelated target, with no reactivity to GCC; negative control [reference compound]",T/C compared to 0.9% NaCl group,[8],0.64
same,"Lung weight, T test P vs. vehicle",[8]; end of study,0.4
